Measurements taken from US11802111B2, “Cyclobutyl amide monoacylglycerol lipase modulators” (Janssen Pharmaceutica NV, priority 2020, dated 2023).

What follows are compounds tested against human MGL from HeLa cells (Homo sapiens (Human), UniProt Q99685) (assay: MGL in vitro activity assay ([glycerol-1,3-3H]-oleoyl glycerol hydrolysis, activated carbon filtration)). Settings: 300 nM [Glycerol-1,3-3H]-oleoyl glycerol, one hour.
Format: biochemical
Protocol: The assay used to measure the in vitro activity of MGL is adapted from the assay used for another serine hydrolase (FAAH) described in Wilson et al., 2003 (A high-throughput-compatible assay for determining the activity of fatty acid amide hydrolase. Wilson S J, Lovenberg T W, Barbier A J. Anal Biochem. 2003 Jul. 15; 318(2):270-5). The assay consists of combining endogenously expressed MGL from HeLa cells with test compounds, adding [glycerol-1,3-^3H]-oleyl glycerol, incubating for one hour, and then measuring the amount of cleaved [1,3-^3H]-glycerol that passes through an activated carbon filter. The amount of cleaved, tritiated glycerol passing through the carbon filter is proportional to the activity of the MGL enzyme in a particular well/test condition.
Standard conditions for this assay combine 300 nM [Glycerol-1,3-^3H]-oleoyl glycerol with human MGL from HeLa cells and test compounds for one hour, after which the reaction is filtered through activated carbon and tritium is measured in the flow through. The test compound concentration in screening mode is 10 μM, while the highest compound concentration in IC50 assays is determined empirically. MGL is the predominant hydrolase in HeLa cells/cell homogenates.

Sequence of human MGL from HeLa cells (Q99685 whole entry): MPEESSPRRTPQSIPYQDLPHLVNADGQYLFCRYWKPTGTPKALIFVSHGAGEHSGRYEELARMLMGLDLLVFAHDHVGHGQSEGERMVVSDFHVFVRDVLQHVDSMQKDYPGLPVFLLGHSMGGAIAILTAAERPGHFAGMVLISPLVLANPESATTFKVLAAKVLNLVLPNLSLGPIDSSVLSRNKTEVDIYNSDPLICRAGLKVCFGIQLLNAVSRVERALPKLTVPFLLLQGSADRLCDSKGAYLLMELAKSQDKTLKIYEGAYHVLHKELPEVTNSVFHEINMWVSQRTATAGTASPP

IC50 | Structure (SMILES)
4.6 nM | Cc1cc(C2CCC3(C2)CN(C(=O)[C@H]2C[C@@](C)(O)C2)C3)ccc1OC(F)F (mixture of isomers) [Example 72, (rac)-(6-(4-(Difluoromethoxy)-3-methylphenyl)-2-azaspiro[3.4]octan-2-yl)((1s,3s)-3-hydroxy-3-methylcyclobutyl)methanone]
2.4 nM | Cc1cc(C2CC2)ccc1C1CCC2(C1)CN(C(=O)[C@H]1C[C@@](C)(O)C1)C2 (mixture of isomers) [Example 75, (rac)-(6-(4-Cyclopropyl-2-methylphenyl)-2-azaspiro[3.4]octan-2-yl)((1s,3s)-3-hydroxy-3-methylcyclobutyl)methanone]
51 nM | COc1ccc(C2CCC3(C2)CN(C(=O)[C@H]2C[C@@](C)(O)C2)C3)cc1C (mixture of isomers) [Example 76, (rac)-((1s,3s)-3-Hydroxy-3-methylcyclobutyl)(6-(4-methoxy-3-methylphenyl)-2-azaspiro[3.4]octan-2-yl)methanone]
12 nM | Cc1cc(C2CCC3(C2)CN(C(=O)[C@H]2C[C@@](C)(O)C2)C3)cc(C(F)(F)F)c1 (mixture of isomers) [Example 77, (rac)-((1s,3s)-3-Hydroxy-3-methylcyclobutyl)(6-(3-methyl-5-(trifluoromethyl)phenyl)-2-azaspiro[3.4]octan-2-yl)methanone]
11 nM | Cc1ccc(C(F)(F)F)cc1C1CCC2(C1)CN(C(=O)[C@H]1C[C@@](C)(O)C1)C2 (mixture of isomers) [Example 78, (rac)-((1s,3s)-3-Hydroxy-3-methylcyclobutyl)(6-(2-methyl-5-(trifluoromethyl)phenyl)-2-azaspiro[3.4]octan-2-yl)methanone]
242 nM | COc1cccc(C2CCC3(C2)CN(C(=O)[C@H]2C[C@@](C)(O)C2)C3)c1F (mixture of isomers) [Example 79, (rac)-(6-(2-Fluoro-3-methoxyphenyl)-2-azaspiro[3.4]octan-2-yl)((1s,3s)-3-hydroxy-3-methylcyclobutyl)methanone]
104 nM | COc1cc(C)cc(C2CCC3(C2)CN(C(=O)[C@H]2C[C@@](C)(O)C2)C3)c1 (mixture of isomers) [Example 80, (rac)-((1s,3s)-3-Hydroxy-3-methylcyclobutyl)(6-(3-methoxy-5-methylphenyl)-2-azaspiro[3.4]octan-2-yl)methanone]
20 nM | C[C@]1(O)C[C@@H](C(=O)N2CC3(CCC(c4cc(C5CC5)ccc4F)C3)C2)C1 (mixture of isomers) [Example 81, (rac)-(6-(5-Cyclopropyl-2-fluorophenyl)-2-azaspiro[3.4]octan-2-yl)((1s,3s)-3-hydroxy-3-methylcyclobutyl)methanone]
31 nM | Cc1ccc(C2CCC3(C2)CN(C(=O)[C@H]2C[C@@](C)(O)C2)C3)cc1OC(F)F (mixture of isomers) [Example 82, (rac)-(6-(3-(Difluoromethoxy)-4-methylphenyl)-2-azaspiro[3.4]octan-2-yl)((1s,3s)-3-hydroxy-3-methylcyclobutyl)methanone]
25 nM | Cc1cc(OC(F)F)ccc1C1CCC2(C1)CN(C(=O)[C@H]1C[C@@](C)(O)C1)C2 (mixture of isomers) [Example 83, (rac)-(6-(4-(Difluoromethoxy)-2-methylphenyl)-2-azaspiro[3.4]octan-2-yl)((1s,3s)-3-hydroxy-3-methylcyclobutyl)methanone]
47 nM | Cc1cc(OC(F)F)cc(C2CCC3(C2)CN(C(=O)[C@H]2C[C@@](C)(O)C2)C3)c1 (mixture of isomers) [Example 84, (rac)-(6-(3-(Difluoromethoxy)-5-methylphenyl)-2-azaspiro[3.4]octan-2-yl)((1s,3s)-3-hydroxy-3-methylcyclobutyl)methanone]
42 nM | Cc1ccc(OC(F)F)cc1C1CCC2(C1)CN(C(=O)[C@H]1C[C@@](C)(O)C1)C2 (mixture of isomers) [Example 85, (rac)-(6-(5-(Difluoromethoxy)-2-methylphenyl)-2-azaspiro[3.4]octan-2-yl)((1s,3s)-3-hydroxy-3-methylcyclobutyl)methanone]
42 nM | COc1cc(Cl)cc(C2CCC3(C2)CN(C(=O)[C@H]2C[C@@](C)(O)C2)C3)c1 (mixture of isomers) [Example 86, (rac)-(6-(3-Chloro-5-methoxyphenyl)-2-azaspiro[3.4]octan-2-yl)((1s,3s)-3-hydroxy-3-methylcyclobutyl)methanone]
105 nM | COc1cc(C2CCC3(C2)CN(C(=O)[C@H]2C[C@@](C)(O)C2)C3)ccc1Cl (mixture of isomers) [Example 87, (rac)-(6-(4-Chloro-3-methoxyphenyl)-2-azaspiro[3.4]octan-2-yl)((1s,3s)-3-hydroxy-3-methylcyclobutyl)methanone]
59 nM | CC(C)c1cccc(C2CCC3(C2)CN(C(=O)[C@H]2C[C@](O)(C(F)(F)F)C2)C3)c1 (mixture of isomers) [Example 88, (rac)-((1s,3s)-3-Hydroxy-3-(trifluoromethyl)cyclobutyl)(6-(3-isopropylphenyl)-2-azaspiro[3.4]octan-2-yl)methanone]
64 nM | CC(F)(F)c1cccc(C2CCC3(C2)CN(C(=O)[C@H]2C[C@@](C)(O)C2)C3)c1 (mixture of isomers) [Example 90, (rac)-(6-(3-(1,1-Difluoroethyl)phenyl)-2-azaspiro[3.4]octan-2-yl)((1s,3s)-3-hydroxy-3-methylcyclobutyl)methanone]
58 nM | CCc1cccc(C2CCC3(C2)CN(C(=O)[C@H]2C[C@@](C)(O)C2)C3)c1 (mixture of isomers) [Example 91, (rac)-(6-(3-Ethylphenyl)-2-azaspiro[3.4]octan-2-yl)((1s,3s)-3-hydroxy-3-methylcyclobutyl)methanone]
27 nM | Cc1ccc(C2CCC3(C2)CN(C(=O)[C@H]2C[C@@](C)(O)C2)C3)cc1C(F)F (mixture of isomers) [Example 92, (rac)-(6-(3-(Difluoromethyl)-4-methylphenyl)-2-azaspiro[3.4]octan-2-yl)((1s,3s)-3-hydroxy-3-methylcyclobutyl)methanone]
20 nM | Cc1cc(OC(F)(F)F)cc(C2CCC3(C2)CN(C(=O)[C@H]2C[C@@](C)(O)C2)C3)c1 (mixture of isomers) [Example 93, (rac)-((1s,3s)-3-Hydroxy-3-methylcyclobutyl)(6-(3-methyl-5-(trifluoromethoxy)phenyl)-2-azaspiro[3.4]octan-2-yl)methanone]
60 nM | Cc1cc(C(F)F)cc(C2CCC3(C2)CN(C(=O)[C@H]2C[C@@](C)(O)C2)C3)c1 (mixture of isomers) [Example 94, (rac)-(6-(3-(Difluoromethyl)-5-methylphenyl)-2-azaspiro[3.4]octan-2-yl)((1s,3s)-3-hydroxy-3-methylcyclobutyl)methanone]
290 nM | COc1c(C)cccc1C1CCC2(C1)CN(C(=O)[C@H]1C[C@@](C)(O)C1)C2 (mixture of isomers) [Example 95, (rac)-((1s,3s)-3-Hydroxy-3-methylcyclobutyl)(6-(2-methoxy-3-methylphenyl)-2-azaspiro[3.4]octan-2-yl)methanone]
18 nM | CCc1ccc(C2CCC3(C2)CN(C(=O)[C@H]2C[C@@](C)(O)C2)C3)cc1 (mixture of isomers) [Example 96, (rac)-(6-(4-Ethylphenyl)-2-azaspiro[3.4]octan-2-yl)((1s,3s)-3-hydroxy-3-methylcyclobutyl)methanone]
654 nM | C[C@]1(O)C[C@@H](C(=O)N2CC3(CCC(c4ccn5nccc5c4)C3)C2)C1 (mixture of isomers) [Example 97, (rac)-((1s,3s)-3-Hydroxy-3-methylcyclobutyl)(6-(pyrazolo[1,5-a]pyridin-5-yl)-2-azaspiro[3.4]octan-2-yl)methanone]
292 nM | Cc1cccc(C)c1C1CCC2(C1)CN(C(=O)[C@H]1C[C@@](C)(O)C1)C2 (mixture of isomers) [Example 98, (rac)-(6-(2,6-Dimethylphenyl)-2-azaspiro[3.4]octan-2-yl)((1s,3s)-3-hydroxy-3-methylcyclobutyl)methanone]
5930 nM | Cn1cc(C2CCC3(C2)CN(C(=O)[C@H]2C[C@@](C)(O)C2)C3)cn1 (mixture of isomers) [Example 99, (rac)-((1s,3s)-3-Hydroxy-3-methylcyclobutyl)(6-(1-methyl-1H-pyrazol-4-yl)-2-azaspiro[3.4]octan-2-yl)methanone]
8850 nM | Cn1cc(C2CCC3(C2)CN(C(=O)[C@H]2C[C@@](C)(O)C2)C3)c(C(F)(F)F)n1 (mixture of isomers) [Example 100, (rac)-((1s,3s)-3-Hydroxy-3-methylcyclobutyl)(6-(1-methyl-3-(trifluoromethyl)-1H-pyrazol-4-yl)-2-azaspiro[3.4]octan-2-yl)methanone]
753 nM | Cn1nc(C(F)(F)F)cc1C1CCC2(C1)CN(C(=O)[C@H]1C[C@@](C)(O)C1)C2 (mixture of isomers) [Example 101, (rac)-((1s,3s)-3-Hydroxy-3-methylcyclobutyl)(6-(1-methyl-3-(trifluoromethyl)-1H-pyrazol-5-yl)-2-azaspiro[3.4]octan-2-yl)methanone]
301 nM | Cn1ncc2cc(C3CCC4(C3)CN(C(=O)[C@H]3C[C@@](C)(O)C3)C4)ccc21 (mixture of isomers) [Example 102, (rac)-((1s,3s)-3-Hydroxy-3-methylcyclobutyl)(6-(1-methyl-1H-indazol-5-yl)-2-azaspiro[3.4]octan-2-yl)methanone]
7.4 nM | Cc1ccc(C2CCC3(C2)CN(C(=O)[C@H]2C[C@@](C)(O)C2)C3)cc1OC(F)(F)F (mixture of isomers) [Example 107, (rac)-((1s,3s)-3-Hydroxy-3-methylcyclobutyl)(6-(4-methyl-3-(trifluoromethoxy)phenyl)-2-azaspiro[3.4]octan-2-yl)methanone]
